Where a name gives a salt, the structure may show the parent alone. Read-outs that look alike come from different tables or passages of the source.
Tests used:
[1] = Solubility of bupivacaine free-base and salt in water and ethanol; format: physicochemical
Experimental: In water, the free-base (unionized form) of bupivacaine is much less soluble in water than the salt form (bupivacaine-HCl). A water suspension of free-base in water has a pH of 7.85. […] By lowering the pH, the ratio of protonated bupivacaine (ionized) to unprotonated bupivacaine (unionized) increases.
(§1) Stents, prepared as described in Example 1, are imbibed in 5% bupivacaine-HCl in water/ethanol for 20 minutes at 45° C.

[2] = Elution of deposited drug from imbibed stents in buffered saline solution (HPLC); format: physicochemical; details: for rate of elution of drug from imbibed polyurethane stent: polyurethane stent imbibed with the named form
Experimental: as §1
The amount of drug deposited on the stent is determined by high performance liquid chromatography (HPLC). The rate of bupivacaine dissolution is determined by measuring the elution profiles using HPLC.
The solubility and thus the ratio of bupivacaine to bupivacaine-HCl was determined by the elution of the deposited drug in buffered saline solution (pH=7.4) mimicking a bodily fluid.

[3] = buffered saline solution pH=7.4

Compound	solubility in aqueous solution relative to the bupivacaine-salt ([1]; aqueous solution)	pH of water suspension of free-base ([1]; suspension in water)	solubility ([1]; water, pH 7.85, water, thermodynamic from solid, read-out: solubility) [mg/mL]	elution of the drug on day one and day two, ethanol solution relative to water solution [2, 3]	solubility of the deposited drug, ethanol deposition relative to water deposition [2, 3]	rate of elution of drug from imbibed polyurethane stent ([2]; listed as bupivacaine free-base)	solubility ([1]; aqueous buffer, water, pH between 1.8 and 6, read-out: solubility (dissolved in water)) [mg/mL]	solubility ([1]; ethanol, organic solvent or mixture, read-out: solubility in ethanol) [mg/mL]	solubility ([1]; water, read-out: solubility in water) [mg/mL]	rate of elution of drug from imbibed polyurethane stent [2]
CCCCN1CCCCC1C(=O)Nc1c(C)cccc1C (stereo not shown) [bupivacaine]	at least two orders of magnitude less soluble	7.85	~0.25	approximately six times	close to six times greater	greatly reduced				
CCCCN1CCCCC1C(=O)Nc1c(C)cccc1C (stereo not shown) [bupivacaine-HCl]							40 to 50	125	40	can elute more quickly

— patent US20080082038A1, “Medical Device including a Bioactive in a Non-ionic and an Ionic Form and Methods of Preparation Thereof” (Vance Products Incorporated, d/b/a/ Cook Urological …, priority 2006, published 2008)
